# Reference: ChEMBL document CHEMBL1201862, “PubChem BioAssay data set” (2004)
# Calls of active or inactive are those of the source.
# What was measured:
# cells = type: functional
# [1] = Vero E6 cell cytotoxicity, dose response, cytotoxicity control for non-replicating M. tuberculosis project, secondary assay (AID 492998); type: functional, VeroE6; settings: Vero C1008
# [2] = THP-1 cell cytotoxicity, dose response, cytotoxicity control for non-replicating M. tuberculosis project (AID 489025); type: functional
# [3] = target: Serine/threonine-protein phosphatase PP1-alpha catalytic subunit (Homo sapiens, UniProt P62136); assay: PP1 phosphatase inhibitors, dose response, biochemical, fluorescence (AID 2403);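 also: phosphatase turnover of OMFP into fluorescent 3-O-methylfluorescein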
# Coagulation factor XII = target: T1, Coagulation factor XII (Homo sapiens, UniProt P00748); type: functional;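 also: activated factor XIIa alpha cleaving a fluorogenic AMC peptide substrate; inhibitor potency from loss of enzyme activity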
# T1 sequence (P00748 whole entry): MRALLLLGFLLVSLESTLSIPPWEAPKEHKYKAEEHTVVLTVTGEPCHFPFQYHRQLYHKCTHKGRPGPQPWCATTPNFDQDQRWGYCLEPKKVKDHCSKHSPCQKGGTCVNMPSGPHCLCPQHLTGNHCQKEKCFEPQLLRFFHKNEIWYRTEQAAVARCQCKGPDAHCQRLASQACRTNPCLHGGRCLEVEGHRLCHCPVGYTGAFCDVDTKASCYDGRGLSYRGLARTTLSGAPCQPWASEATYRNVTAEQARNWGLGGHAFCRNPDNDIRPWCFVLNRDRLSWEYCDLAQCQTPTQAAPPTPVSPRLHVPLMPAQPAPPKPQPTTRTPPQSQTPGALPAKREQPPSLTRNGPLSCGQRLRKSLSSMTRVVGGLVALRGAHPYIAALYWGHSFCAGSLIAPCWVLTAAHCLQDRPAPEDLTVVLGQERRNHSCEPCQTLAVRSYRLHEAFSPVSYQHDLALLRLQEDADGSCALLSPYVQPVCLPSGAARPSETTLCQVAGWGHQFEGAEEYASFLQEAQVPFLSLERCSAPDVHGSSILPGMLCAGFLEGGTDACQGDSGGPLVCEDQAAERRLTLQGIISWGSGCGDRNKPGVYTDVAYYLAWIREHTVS
# [4] = target: T2, Serine/threonine-protein phosphatase (Homo sapiens, UniProt Q9BPW0); assay: Counterscreen for inhibitors of PP1: fluorescence-based biochemical high throughput dose response assay to identify inhibitors of Protein Phosphatase 5 (PP5). [Related pubchem assays: 2034 (Summary (PP5 inhibitors)), 1987 (PP5 inhibitors in singlate), 2235 (PP1 inhibitors in singlate)]
# T2 sequence (Q9BPW0 whole entry): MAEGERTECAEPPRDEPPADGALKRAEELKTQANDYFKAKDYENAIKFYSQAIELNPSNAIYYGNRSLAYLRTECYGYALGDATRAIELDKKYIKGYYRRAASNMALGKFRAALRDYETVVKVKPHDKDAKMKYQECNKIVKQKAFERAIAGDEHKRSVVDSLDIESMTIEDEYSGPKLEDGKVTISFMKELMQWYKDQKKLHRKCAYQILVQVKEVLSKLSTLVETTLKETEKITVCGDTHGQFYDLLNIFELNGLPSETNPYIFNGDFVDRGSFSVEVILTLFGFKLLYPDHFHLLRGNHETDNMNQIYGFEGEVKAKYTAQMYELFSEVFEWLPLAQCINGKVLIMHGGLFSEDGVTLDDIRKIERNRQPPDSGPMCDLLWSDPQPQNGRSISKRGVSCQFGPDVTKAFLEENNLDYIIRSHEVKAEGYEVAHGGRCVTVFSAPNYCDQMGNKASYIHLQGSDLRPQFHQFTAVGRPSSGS
# Troponin, cardiac muscle = Troponin, cardiac muscle (Homo sapiens, UniProt P19429+P45379+P63316); assay: Fluorescence-based biochemical high throughput dose response assay for activators of the calcium sensitivity of cardiac Regulated Thin Filaments (RTF). [Related pubchem assays (depositor defined):AID493008, AID493018, AID504382, AID504383]; type: protein-complex assay
# [5] = target: T3, Polyadenylate-binding protein 1 (Homo sapiens, UniProt P11940); assay: PABP1 MLLE–PAM2 binding inhibitor potency, dose response, biochemical, fluorescence polarization, FITC-PAM2 peptide (AID 602259); type: functional; settings: read-out: IC50_Mean
# Protein skinhead-1 = target: T4, Protein skinhead-1 (Caenorhabditis elegans, UniProt P34707); type: functional
# T4 sequence (P34707 whole entry): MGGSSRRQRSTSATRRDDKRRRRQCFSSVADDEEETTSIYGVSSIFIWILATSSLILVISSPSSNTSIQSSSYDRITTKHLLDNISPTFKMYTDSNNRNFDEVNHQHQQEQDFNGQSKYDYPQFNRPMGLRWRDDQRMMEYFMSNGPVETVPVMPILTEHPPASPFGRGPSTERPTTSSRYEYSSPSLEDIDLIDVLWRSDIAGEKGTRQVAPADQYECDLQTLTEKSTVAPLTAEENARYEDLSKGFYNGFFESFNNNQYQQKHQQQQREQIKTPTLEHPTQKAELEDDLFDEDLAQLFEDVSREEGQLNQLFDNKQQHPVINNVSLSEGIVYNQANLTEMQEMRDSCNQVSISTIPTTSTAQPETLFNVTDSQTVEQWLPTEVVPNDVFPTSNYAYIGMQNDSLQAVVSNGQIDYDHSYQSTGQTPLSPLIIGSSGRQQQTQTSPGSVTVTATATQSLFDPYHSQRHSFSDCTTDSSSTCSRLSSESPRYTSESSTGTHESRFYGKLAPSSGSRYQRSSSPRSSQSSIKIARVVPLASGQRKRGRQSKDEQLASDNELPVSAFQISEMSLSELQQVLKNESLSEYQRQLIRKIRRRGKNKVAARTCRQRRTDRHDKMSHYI
# [6] = target: T3, Polyadenylate-binding protein 1; assay: PABP1 MLLE–PAM2 interaction inhibitors, dose response, miRNA deadenylation inhibitor project, biochemical, fluorescence polarization, Cy5-PAM2 peptide, secondary (AID 602260); type: functional; settings: read-out: IC50_Mean
# [7] = target: G-protein coupled receptor 55 (Homo sapiens, UniProt Q9Y2T6); assay: GPR55 antagonists blocking LPI-driven arrestin recruitment, primary screen, imaging, U2OS, beta-arrestin-GFP, LPI agonist (AID 2013); type: functional;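 also: antagonist potency measured as reduced agonist-driven arrestin aggregation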
# [8] = target: Voltage-dependent T-type calcium channel subunit alpha-1H (Homo sapiens, UniProt O95180); type: functional;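 also: channel activity triggered by adding a high calcium stimulation buffer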
# [9] = Luminescence Cell-Based Dose Retest to Confirm Inhibitors of Cancer Stem Cells. [Related pubchem assays (depositor defined):AID2717, AID2721]; type: functional; settings: Homo sapiens
# [10] = target: Nucleotide-binding oligomerization domain-containing protein 2 (Homo sapiens, UniProt Q9HC29); assay: PubChem AID 2334; type: functional
# [11] = target: T5, Nucleotide-binding oligomerization domain-containing protein 1 (Homo sapiens, UniProt Q9Y239); assay: NOD1 signaling inhibitors, SAR follow-up, revised (AID 2333); type: functional
# T5 sequence (Q9Y239 whole entry): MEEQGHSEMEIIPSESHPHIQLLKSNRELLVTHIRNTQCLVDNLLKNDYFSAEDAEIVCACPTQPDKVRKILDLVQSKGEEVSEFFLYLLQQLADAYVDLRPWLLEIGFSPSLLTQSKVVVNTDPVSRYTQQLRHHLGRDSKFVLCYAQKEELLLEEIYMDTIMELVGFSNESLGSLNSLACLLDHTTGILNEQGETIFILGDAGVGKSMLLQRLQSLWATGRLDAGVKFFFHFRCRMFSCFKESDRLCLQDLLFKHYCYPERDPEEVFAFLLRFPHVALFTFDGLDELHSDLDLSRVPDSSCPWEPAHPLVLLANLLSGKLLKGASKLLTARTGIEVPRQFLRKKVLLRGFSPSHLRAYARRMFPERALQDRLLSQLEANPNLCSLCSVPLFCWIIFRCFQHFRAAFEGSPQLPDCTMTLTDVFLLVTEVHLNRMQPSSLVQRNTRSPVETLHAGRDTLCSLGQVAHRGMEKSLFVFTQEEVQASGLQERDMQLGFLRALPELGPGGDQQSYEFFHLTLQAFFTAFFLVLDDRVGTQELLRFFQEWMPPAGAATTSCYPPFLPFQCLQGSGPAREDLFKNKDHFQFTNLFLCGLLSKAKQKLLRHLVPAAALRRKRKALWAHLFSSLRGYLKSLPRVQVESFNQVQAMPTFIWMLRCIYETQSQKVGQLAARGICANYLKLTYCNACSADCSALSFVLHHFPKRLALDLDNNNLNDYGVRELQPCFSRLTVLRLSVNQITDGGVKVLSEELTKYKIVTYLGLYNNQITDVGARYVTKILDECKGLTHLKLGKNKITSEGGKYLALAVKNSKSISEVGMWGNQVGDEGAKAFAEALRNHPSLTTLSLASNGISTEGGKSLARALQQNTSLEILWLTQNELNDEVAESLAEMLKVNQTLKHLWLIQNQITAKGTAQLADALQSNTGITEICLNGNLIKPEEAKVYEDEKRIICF
# HEK293 = assay: cells; settings: Homo sapiens;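 also: cells exposed to compound for 14 hours overnight before viability readout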
# Tumor necrosis factor = Tumor necrosis factor (Homo sapiens, UniProt P01375); assay: TNFa-triggered NF-kB activation inhibitors, SAR follow-up, cell-based, revised (AID 2337); type: functional
# Streptococcus = assay: Group A Streptococcus viability loss, dose response, counter-screen for streptokinase expression inhibitor project, luminescence, BacTiterGlo (AID 1915); type: functional, organism-based;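 also: potency for reduction of bacterial viability or growth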
# Streptokinase A = target: T6, Streptokinase A (Streptococcus pyogenes serotype M1, UniProt P10520); assay: S. pyogenes streptokinase expression inhibitors, potency, dose response, plasminogen activation absorbance, OD405 (AID 1914); type: functional, Streptococcus pyogenes M1 GAS;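 also: secreted streptokinase activity via plasminogen activation per viability signal from cell pellet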
# T6 sequence (P10520 whole entry): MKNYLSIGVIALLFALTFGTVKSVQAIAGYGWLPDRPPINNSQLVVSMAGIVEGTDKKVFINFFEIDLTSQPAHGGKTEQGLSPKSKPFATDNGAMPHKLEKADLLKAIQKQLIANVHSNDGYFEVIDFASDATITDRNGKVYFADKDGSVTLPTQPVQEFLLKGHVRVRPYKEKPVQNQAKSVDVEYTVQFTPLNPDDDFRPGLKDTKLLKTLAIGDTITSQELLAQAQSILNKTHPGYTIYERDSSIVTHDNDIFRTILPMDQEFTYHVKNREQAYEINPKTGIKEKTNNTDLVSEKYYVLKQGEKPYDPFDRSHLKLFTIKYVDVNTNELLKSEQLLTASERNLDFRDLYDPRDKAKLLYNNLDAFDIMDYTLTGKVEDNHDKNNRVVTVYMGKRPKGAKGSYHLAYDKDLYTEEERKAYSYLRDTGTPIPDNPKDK
# [12] = tested on: Streptococcus sp. 'group A'; assay: growth inhibition of control SK(-) GAS strain, dose response, counter-screen for streptokinase expression inhibitor project, luminescence, kanamycin, BacTiterGlo, confirmation (AID 1900); type: functional, organism-based
# [13] = inhibitors of intracellular T. cruzi replication, confirmation, NIH3T3 host cells, beta-gal luminescence (AID 2044); type: functional, cell-based;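 also: intracellular parasites grown in NIH/3T3 mouse fibroblasts as host cells; luminescent beta-galactosidase reporter signal from transgenic T. cruzi replicating inside host cells; inhibitors lower the luminescence signal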
# [14] = cytotoxicity toward NIH3T3 fibroblasts, dose response, counter-screen, cell-based, ATP luminescence, mouse fibroblasts (AID 2010); type: functional;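 also: cells exposed to compound for about 90 hours before reading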
# [15] = target: Heat shock cognate 71 kDa protein (Homo sapiens, UniProt P11142); assay: In Vitro Hsc70 Dose Response Fluorescence Polarization Assay. [Related pubchem assays: 1072 ]
# [16] = target: Heat shock 70 kDa protein 1A (Homo sapiens, UniProt P0DMV8); assay: Hsp70 inhibitors, SAR follow-up, biochemical, fluorescence polarization (AID 1072)
# 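For AC50 in this document: cells exposed to compound for roughly 70 hours or longer before luminescence read.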
smiles,measurement,setting,value
COc1cccc(-c2nnc(NC(=O)c3cccc(F)c3)o2)c1,IC50,cells,3.03 µM (active)
same,CC50,[1],9 µM (active)
same,CC50,[2],13 µM (active)
CC1CC(NC(=O)C2C3CCC(O3)C2C(=O)O)CC(C)(C)C1 (stereo not drawn),IC50,[3],2.85 µM (active)
same,IC50,Coagulation factor XII,> 50 µM (inactive)
same,IC50,[4],2.78 µM (active)
COC(=O)C1=C(C)NC(=O)/C1=C\N(C)C,EC50,"Troponin, cardiac muscle",> 71.5 µM (inactive)
same,IC50,[5],> 66 µM (inactive)
same,IC50,Protein skinhead-1,> 100 µM (inactive)
same,IC50,[6],> 66 µM (inactive)
N#C/C(=C\c1ccccc1[N+](=O)[O-])C(=O)NCc1ccccc1,IC50,[5],> 66 µM (inactive)
same,IC50,[7],3.09 µM (active)
same,IC50,[6],> 66 µM (inactive)
CCC(c1nnnn1Cc1ccco1)N1CCN(c2cc(Cl)ccc2C)CC1 (stereo not drawn),EC50,[8],4.19 µM (active)
same,AC50,[9],3.44 µM (active)
COc1ccc(C(=O)/C=C/c2cn(CC(O)CN3CCN(C)CC3)c3ccccc23)cc1OC (stereo not drawn),EC50,"Troponin, cardiac muscle",12.3 µM (inactive)
CCC(=O)Nc1nc2ccccc2n1Cc1ccccc1,IC50,cells,6.75 µM (active)
same,IC50,[10],> 20 µM (inactive)
same,IC50,[11],> 20 µM (inactive)
same,IC50,HEK293,> 20 µM (inactive)
same,CC50,[1],> 20 µM (active)
same,CC50,[2],> 40 µM (active)
same,IC50,Tumor necrosis factor,> 20 µM (inactive)
Cn1nccc1NC(=O)Nc1cccc(Cl)c1Cl,EC50,"Troponin, cardiac muscle",> 71.4 µM (inactive)
COc1ccccc1Sc1nc(-c2ccccn2)ncc1OC,IC50,[3],7.52 µM (active)
same,EC50,Streptococcus,> 150 µM (not active)
same,EC50,Streptokinase A,> 150 µM (not active)
same,IC50,[4],66.8 µM (not active)
same,EC50,[12],27.1 µM (active)
O=C(Nc1ccccc1-c1nnc(SCc2ccc(Cl)cc2)o1)c1ccccc1,EC50,[8],6.46 µM (active)
same,EC50,[13],2.22 µM (active)
same,EC50,[14],> 60 µM (not active)
O=C(Cc1ccccc1)Nc1nc2ccccc2n1Cc1ccc(Cl)cc1,IC50,[10],> 20 µM (inactive)
same,IC50,[11],> 20 µM (inactive)
same,IC50,HEK293,> 20 µM (inactive)
same,IC50,Tumor necrosis factor,> 20 µM (inactive)
CC1C2C=CC1C(c1c3ccc(=O)c(O)c-3oc3c(O)c(O)ccc13)C2C(=O)O (stereo not drawn),IC50,[15],5.58 µM (active)
same,IC50,[16],0.634 µM (active)
